The text below walks through data of ChEMBL document CHEMBL4257513 (Medchemcomm, 2018).

Molecules are shown by their SMILES. Active and inactive are the calls of the source. No cut-off for these calls is given here.

In the first experiment the target is T1, Tyrosinase (Agaricus bisporus) (UniProt O42713).
T1 sequence (whole entry): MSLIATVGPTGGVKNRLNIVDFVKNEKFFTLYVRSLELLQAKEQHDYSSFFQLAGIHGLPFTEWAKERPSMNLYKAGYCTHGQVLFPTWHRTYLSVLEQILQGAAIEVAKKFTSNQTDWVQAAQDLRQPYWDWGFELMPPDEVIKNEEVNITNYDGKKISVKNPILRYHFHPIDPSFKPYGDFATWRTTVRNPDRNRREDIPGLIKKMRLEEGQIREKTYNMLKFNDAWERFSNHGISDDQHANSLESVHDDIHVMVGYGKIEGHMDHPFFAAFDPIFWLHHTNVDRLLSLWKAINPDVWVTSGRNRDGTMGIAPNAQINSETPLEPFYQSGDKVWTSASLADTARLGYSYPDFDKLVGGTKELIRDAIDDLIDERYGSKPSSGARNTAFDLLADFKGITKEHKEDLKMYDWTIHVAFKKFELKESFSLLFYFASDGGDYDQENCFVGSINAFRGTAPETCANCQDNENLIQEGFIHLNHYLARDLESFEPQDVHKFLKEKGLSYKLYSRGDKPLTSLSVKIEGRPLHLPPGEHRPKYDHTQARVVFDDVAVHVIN
Nature of the experiment: Inhibition of mushroom tyrosinase at 100 uM using L-dopa as substrate preincubated for 10 mins followed by substrate addition and measured for 1 min by spectrophotometric method relative to control.
Compound `COc1ccc(C(C)=O)c(OC(=O)/C=C/c2ccccc2)c1` came in with an inhibition below 40%.

Turning to `Cc1ccc(C(C)C)c(OC(=O)/C=C/c2ccc(Cl)cc2)c1`, the inhibition was below 40%.

`COc1ccc(C(C)=O)c(OC(=O)/C=C/c2ccc(Cl)cc2)c1` gave an inhibition above 40%.

Regarding `COc1ccc(C(C)=O)c(OC(=O)/C=C/c2ccc(O)cc2)c1`, the inhibition is above 40%.

`COc1ccc(C(C)=O)c(OC(=O)/C=C/c2ccc(C)cc2)c1` showed an inhibition above 40%.

As for `COc1ccc(/C=C/C(=O)Oc2cc(C)ccc2C(C)C)cc1`, the inhibition was below 40%.

Take `Cc1ccc(C(C)C)c(OC(=O)/C=C/c2ccc(O)cc2)c1`: the inhibition was above 40%.

The compound `Cc1ccc(C(C)C)c(OC(=O)/C=C/c2ccccc2)c1` yielded an inhibition below 40%.

Take `COc1cc(/C=C/C(=O)Oc2cc(C)ccc2C(C)C)ccc1O`: the inhibition was below 40%.

On to `COc1ccc(C(C)=O)c(OC(=O)/C=C/c2ccc(O)c(OC)c2)c1`, for which the inhibition is below 40%.

Take `COc1ccc(/C=C/C(=O)Oc2cc(OC)ccc2C(C)=O)cc1`: the inhibition was above 40%.

In the case of `Cc1ccc(/C=C/C(=O)Oc2cc(C)ccc2C(C)C)cc1`, the inhibition is below 40%.

For the compound `COc1ccc(C(C)=O)c(OC(=O)/C=C/c2ccc(F)cc2)c1`, the inhibition was above 40%.

On to `Cc1ccc(C(C)C)c(OC(=O)/C=C/c2ccc(F)cc2)c1`, for which the inhibition is below 40%.

The target in the next experiment is T1, Tyrosinase (Agaricus bisporus). In words: Potency index, ratio of kojic acid IC50 to test compound IC50 for mushroom tyrosinase.
With `COc1ccc(C(C)=O)c(OC(=O)/C=C/c2ccc(O)cc2)c1`, the Ratio IC50 came out at 16.

For `Cc1ccc(C(C)C)c(OC(=O)/C=C/c2ccc(O)cc2)c1`, the Ratio IC50 was determined as 3.

The next experiment has the same target. In words: Reversible inhibition of mushroom tyrosinase up to 5 uM using L-dopa as substrate preincubated for 10 mins followed by substrate addition and measured for 1 min by spectrophotometric method.
`COc1ccc(C(C)=O)c(OC(=O)/C=C/c2ccc(O)cc2)c1`: the inhibition entry was “Active”.

The target is the same in a further experiment. Nature of the experiment: Reversible inhibition of mushroom tyrosinase at 2 to 20 uM using L-dopa as substrate preincubated for 10 mins followed by substrate addition and measured for 1 min by spectrophotometric method.
In the case of `COc1ccc(C(C)=O)c(OC(=O)/C=C/c2ccc(F)cc2)c1`, the inhibition result was “Active”.

The target is the same in the next experiment. In words: Reversible inhibition of mushroom tyrosinase at 5 to 20 uM using L-dopa as substrate preincubated for 10 mins followed by substrate addition and measured for 1 min by spectrophotometric method.
Consider `Cc1ccc(C(C)C)c(OC(=O)/C=C/c2ccc(O)cc2)c1`, for which the inhibition entry was “Active”.

In another experiment the target is T2, Tyrosinase (Agaricus bisporus, UniProt O42713).
T2 sequence (O42713 whole entry): T1 sequence (whole entry)
In words: Noncompetitive inhibition of mushroom tyrosinase using varying levels of L-dopa as substrate preincubated for 10 mins followed by substrate addition and measured for 1 min by Lineweaver-burk plot analysis.
Compound `COc1ccc(C(C)=O)c(OC(=O)/C=C/c2ccc(O)cc2)c1` came in with a Ki of 3.8 µM.

A further experiment has as its target T2, Tyrosinase. Nature of the experiment: Mixed-type inhibition of mushroom tyrosinase using varying levels of L-dopa as substrate preincubated for 10 mins followed by substrate addition and measured for 1 min by Lineweaver-burk plot analysis.
Compound `Cc1ccc(C(C)C)c(OC(=O)/C=C/c2ccc(O)cc2)c1` yielded a Ki of 8 µM.

Take `COc1ccc(C(C)=O)c(OC(=O)/C=C/c2ccc(F)cc2)c1`: the inhibition constant Ki turned out to be 10 µM.

A further experiment deals with T2, Tyrosinase. In words: Noncompetitive inhibition of mushroom tyrosinase assessed as inhibitory constant for enzyme-substrate complex using varying levels of L-dopa as substrate preincubated for 10 mins followed by substrate addition and measured for 1 min by Lineweaver-burk plot analysis.
As for `COc1ccc(C(C)=O)c(OC(=O)/C=C/c2ccc(O)cc2)c1`, the Ki was 3.8 µM.

For a further experiment, the target named is T2, Tyrosinase. In words: Mixed-type inhibition of mushroom tyrosinase assessed as inhibitory constant for enzyme-substrate complex using varying levels of L-dopa as substrate preincubated for 10 mins followed by substrate addition and measured for 1 min by Lineweaver-burk plot analysis.
On to `Cc1ccc(C(C)C)c(OC(=O)/C=C/c2ccc(O)cc2)c1`, for which the Ki was determined as 72.2 µM.

Take `COc1ccc(C(C)=O)c(OC(=O)/C=C/c2ccc(F)cc2)c1`: the inhibition constant Ki is 35.6 µM.

The next experiment addresses T2, Tyrosinase.
Description: Inhibition of mushroom tyrosinase using L-dopa as substrate preincubated for 10 mins followed by substrate addition and measured for 1 min by spectrophotometric method
`COc1ccc(C(C)=O)c(OC(=O)/C=C/c2ccccc2)c1` showed a half-maximal inhibitory concentration (IC50) above 100 µM.

`Cc1ccc(C(C)C)c(OC(=O)/C=C/c2ccc(Cl)cc2)c1` had an IC50 above 100 µM.

`COc1ccc(C(C)=O)c(OC(=O)/C=C/c2ccc(Cl)cc2)c1` yielded an IC50 of 164 µM.

`COc1ccc(C(C)=O)c(OC(=O)/C=C/c2ccc(O)cc2)c1` returned a 50% inhibitory concentration (IC50) of 2 µM.

Compound `COc1ccc(C(C)=O)c(OC(=O)/C=C/c2ccc(C)cc2)c1` yielded an IC50 of 39 µM.

`COc1ccc(/C=C/C(=O)Oc2cc(C)ccc2C(C)C)cc1`: the IC50 was above 100 µM.

As to `Cc1ccc(C(C)C)c(OC(=O)/C=C/c2ccc(O)cc2)c1`, the concentration for half-maximal inhibition (IC50) was 10.6 µM.

Compound `Cc1ccc(C(C)C)c(OC(=O)/C=C/c2ccccc2)c1` came in with an IC50 above 100 µM.

With `O=C(O)/C=C/c1ccc(O)cc1` [COUMARIC ACID], half-maximal inhibition (IC50) was put at 4710 µM.

In the case of `COc1cc(/C=C/C(=O)Oc2cc(C)ccc2C(C)C)ccc1O`, the IC50 was above 100 µM.

The compound `COc1ccc(C(C)=O)c(O)c1` [PAEONOL] gave an IC50 of 121 µM.

As to `COc1ccc(C(C)=O)c(OC(=O)/C=C/c2ccc(O)c(OC)c2)c1`, the IC50 is above 100 µM.

Take `COc1ccc(/C=C/C(=O)Oc2cc(OC)ccc2C(C)=O)cc1`: the IC50 worked out at 77.4 µM.

Regarding `Cc1ccc(/C=C/C(=O)Oc2cc(C)ccc2C(C)C)cc1`, the IC50 was above 100 µM.

Regarding `COc1ccc(C(C)=O)c(OC(=O)/C=C/c2ccc(F)cc2)c1`, the IC50 came to 8.3 µM.

Take `Cc1ccc(C(C)C)c(OC(=O)/C=C/c2ccc(F)cc2)c1`: the IC50 is above 100 µM.

The inhibition is the share of the control response that was lost under treatment. For orientation: Ki means the equilibrium dissociation constant of an inhibitor or competing ligand from its target. A word on the IC50: it is the concentration that inhibits the measured activity by half.
